Patent US20240166658A1, “PORPHYRIN DERIVATIVES AND USES THEREOF” (University of Tasmania, priority 2021, published 2024)

Legend:
[1] = UV-Vis host-guest titration, association constant; format: binding; details: host (9) in dichloromethane; triplicate, TBA salt and acid; Bindfit
Description: Path length of the quartz cell was 1 cm. For UV-vis titrations, a stock solution of host was prepared (2.2×10^−3 M) in dichloromethane (DCM) and serially diluted to the required concentrations. Working solutions of tetrabutylammonium (TBA) anion salts or guest molecules were prepared in the same manner Host−guest titrations used solutions of guest prepared in the working concentration of host solution, according to the procedure of Thordarson, 2011.
UV-vis spectroscopic host−guest titrations were performed in accordance with the methodologies of Thordarson, 2011. Solutions of host in dichloromethane were prepared. Solutions of guest were then prepared in the host solution. Aliquots of guest in host solution were added to host solution and sequentially analysed until a known molar equivalent of guest was added. The amount of guest added per aliquot was ascertained by a preliminary screening experiment; strong association constants required smaller molar equivalents so more information could be collected. By way of example, host (9) responded to 0.1 molar equivalent of PFBA strongly, so an addition of 1 molar equivalent of PFBA would result in a loss of information. The inverse is true for weaker binding interactions. […]
A host solution of host (9) in dichloromethane was monitored using UV-Vis analysis as 0.5-10 equivalents of each PFAS was added. […]

[2] = GenX vapour test with host-doped filter paper; details: for colour of host-doped paper in tube headspace: one hour
Description: A solution of medium chain host (9) (2.20×10^−5 M) in dichloromethane was prepared. Whatman 4 filter papers were soaked/dipped in the host solution and left to air dry on a watch glass. An aqueous solution of GenX™ (1 ppm, 3.03×10^−6 M) was prepared in a glass volumetric flask (1 L). The volumetric flask stopper was removed, and the dried host-doped paper was laid on top the opening.
An aqueous solution of GenX™ (1 ppm, 3.03×10^−6 M) was prepared in a glass volumetric flask (1 L). A solution of medium chain host (2.20×10^−5 M) in dichloromethane was prepared. Whatman 4 filter papers were soaked/dipped in the host solution and left to air dry on a watch glass. The filter papers were cut into strips and adhered to the lids of HDPP tubes. Aqueous samples of GenX™ were diluted to 1 ppm, 1 ppb and 1 ppt and poured into the HDPP tubes. The caps were immediately replaced, and the tubes were left for an hour.

[3] = Colorimetric matching of mixed PFCA samples, high concentration
From the text: The present inventors investigated the colorimetric responses for host (12) with “high” concentrations of PFCA (where [host]<[guest]), and “low” concentrations of PFCA (where [host]>[guest]). Generally, RGB response values will increase with increasing concentrations of PFCA until the host has been saturated; beyond the saturation limit, RGB response values are similar. When there was an excess of guest, the response values could only be used as a threshold indication for PFCA concentrations.
(§1) RGB response curves were established by combining solutions of host (12) (5.01×10^−6 M) with solutions of PFOA (0-16 ppm, 3.86×10^−5 M) in dichloromethane. […] Thus, when establishing a calibration curve, the relative proportion of free host to host−PFCA complex limiting the variability of colour response must be considered for the application.
For the “high” PFCA concentration experiment, the PFOA generated calibration curve (y=0.0401 ln(x)+0.2366, R^2=0.9677) (FIG. 17) begins to level out at ca. 2 ppm. Above that concentration, the RGB response values are difficult to differentiate.

[4] = RGB response, low PFCA concentration
From the text: as §1
In the “low” PFCA concentration experiment, the RGB response values had the greatest rate of change from 0-40 ppb PFOA and appeared to level out between 40-80 ppb PFOA. In that instance, the regression was fit for a host : guest ratio of 0-0.8. To probe the sensor's response to a mixture of PFCAs, samples containing combinations of PFHxA, PFHpA, and PFDA in dichloromethane (7-28 ppb) were prepared and the RGB responses were collected. The PFCA concentrations for the samples were predicted using the PFOA regression (y=0.0591 ln(x)+0.037, R^2=0.9771).
The RGB response values can differentiate between 0 and 1 ppb PFOA numerically on the regression, but to determine the visual detectability, the ΔE values can be calculated. […] Samples from 0-5 ppb PFOA gave a colour change that could be determined as different from the starting host solution (ΔE=4-8) (Table 11). […] Thus, a conservative visual limit of detection of 10 ppb PFCA may be considered for an untrained observer making threshold analysis.

SMILES | K value (averaged association constant Ka) [1] | colour change of host-doped paper over aqueous GenX ([2]; GenX 1 ppm in water, paper on flask opening) | colour of host-doped paper in tube headspace ([2]; aqueous GenX 1 ppb) | colour of host-doped paper in tube headspace ([2]; aqueous GenX 1 ppm) | ΔE ([3]; 15 vs 3 ppm PFCA sample) | ΔE ([3]; 15 vs 12 ppm PFCA sample) | [PFCA]predicted from PFOA regression ([3]; sample measured 0.20 ppm) | ΔE vs host solution ([4]; 1.3 ppb PFOA) | conservative visual limit of detection ([4]; PFCA, untrained observer, threshold analysis) | ΔE (Host − PFCA) ([4]; PFOA 1 ppb) | ΔE (Host − PFCA) ([4]; PFOA 3 ppb) | ΔE (Host − PFCA) ([4]; PFOA 5 ppb) | ΔE (Host − PFCA) ([4]; PFOA 10 ppb) | ΔE (Host − PFCA) ([4]; PFOA 21 ppb) | ΔE (Host − PFCA) ([4]; PFOA 41 ppb) | ΔE (Host − PFCA) ([4]; PFOA 83 ppb) | ΔE vs starting host solution ([4]; samples from 0-5 ppb PFOA)
O=C(Nc1ccccc1-c1c2nc(c(-c3ccccc3NC(=O)C(F)(F)C(F)(F)C(F)(F)C(F)(F)C(F)(F)C(F)(F)C(F)(F)F)c3ccc([nH]3)c(-c3ccccc3NC(=O)C(F)(F)C(F)(F)C(F)(F)C(F)(F)C(F)(F)C(F)(F)C(F)(F)F)c3nc(c(-c4ccccc4NC(=O)C(F)(F)C(F)(F)C(F)(F)C(F)(F)C(F)(F)C(F)(F)C(F)(F)F)c4ccc1[nH]4)C=C3)C=C2)C(F)(F)C(F)(F)C(F)(F)C(F)(F)C(F)(F)C(F)(F)C(F)(F)F [host (9), α,α,α,α-5,10,15,20-tetrakis(2-(pentadecafluorooctanoylamino)phenyl)porphyrin] | 20459 | A colour change developed immediately | A green colour was visible | A green colour was visible | – | – | – | – | – | – | – | – | – | – | – | – | –
O=C(Nc1ccccc1-c1c2nc(c(-c3ccccc3NC(=O)C(F)(F)C(F)(F)C(F)(F)C(F)(F)C(F)(F)C(F)(F)C(F)(F)C(F)(F)C(F)(F)C(F)(F)C(F)(F)F)c3ccc([nH]3)c(-c3ccccc3NC(=O)C(F)(F)C(F)(F)C(F)(F)C(F)(F)C(F)(F)C(F)(F)C(F)(F)C(F)(F)C(F)(F)C(F)(F)C(F)(F)F)c3nc(c(-c4ccccc4NC(=O)C(F)(F)C(F)(F)C(F)(F)C(F)(F)C(F)(F)C(F)(F)C(F)(F)C(F)(F)C(F)(F)C(F)(F)C(F)(F)F)c4ccc1[nH]4)C=C3)C=C2)C(F)(F)C(F)(F)C(F)(F)C(F)(F)C(F)(F)C(F)(F)C(F)(F)C(F)(F)C(F)(F)C(F)(F)C(F)(F)F [host (12), α,α,α,α-5,10,15,20-tetrakis(2-(tricosafluorododecanoylamino)phenyl) porphyrin] | – | – | – | – | 10 | 2 | 0.18 ppm | ≥ 2 | 10 ppb | 4 | 6 | 8 | 11 | 12 | 15 | 17 | 4-8
